PubChem BioAssay (NCI)
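How tested: cells in 96-well plates exposed to compound for 48 hours at five concentrations. At the TGI there is no net growth.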

Experiments:
Assay in all cases: DTP human tumour cell line panel, 48 h
IGROV1 ovarian = system: IGROV1 ovarian
NCI-H23 lung = system: NCI-H23 lung
HOP-62 NSCLC = system: HOP-62 NSCLC
KM12 colon = system: KM12 colon
LOX IMVI melanoma = system: LOX IMVI melanoma
NCI-H226 lung = system: NCI-H226 lung
SNB-19 CNS = system: SNB-19 CNS
MOLT-4 leukemia = system: MOLT-4 leukemia
ACHN renal = system: ACHN renal
TK-10 renal = system: TK-10 renal
SK-MEL-5 melanoma = system: SK-MEL-5 melanoma
BT-549 breast = system: BT-549 breast

Compound | TGI (IGROV1 ovarian) [µM] | TGI (NCI-H23 lung) [µM] | TGI (HOP-62 NSCLC) [µM] | TGI (KM12 colon) [µM] | TGI (LOX IMVI melanoma) [µM] | TGI (NCI-H226 lung) [µM] | TGI (SNB-19 CNS) [µM] | TGI (MOLT-4 leukemia) [µM] | TGI (ACHN renal) [µM] | TGI (TK-10 renal) [µM] | TGI (SK-MEL-5 melanoma) [µM] | TGI (BT-549 breast) [µM]
C(/C=C/Nc1ccc(-c2ccccc2)cc1)=Nc1ccc(-c2ccccc2)cc1 | > 100 | > 100 | > 100 | > 100 | > 100 | > 100 | > 100 | > 100 | > 100 | > 100 | > 100 | > 100
COC(=O)/C=C/c1cnc2c(c1)oc(=O)n2C | > 100 | > 100 | > 100 | > 100 | > 100 | > 100 | > 100 | > 100 | > 100 | > 100 | > 100 | > 100
Fc1cc2nc3n(c2cc1F)C(c1c(Cl)cccc1Cl)SC3 (centres undefined) | 34 | 35.7 | 29.6 | 26.2 | 31.7 | 45.7 | 27 | > 100 | 31.7 | 32.2 | 20.4 | 40.3
Cc1ccc(N2C3=C(CC4=C2CC(C)(C)CC4=O)C(=O)CC(C)(C)C3)cc1 | > 100 | > 100 | > 100 | > 100 | > 100 | > 100 | > 100 | > 100 | > 100 | > 100 | > 100 | > 100
CN(/N=C/c1ccccc1C(=O)O)C1=NCCCCN1 | > 100 | > 100 | > 100 | > 100 | > 100 | > 100 | > 100 | > 100 | > 100 | > 100 | > 100 | > 100
COC(=O)[C@]1(Cc2ccc3ccccc3c2)CCCCCCN1C(=O)c1ccccc1 | > 58.2 | > 45.9 | > 46.5 | > 49 | 30.3 | > 52.8 | > 81.8 | > 47.7 | > 73.2 | > 80.8 | > 100 | > 54
COc1ccc(NC(=S)Nc2c(C)n(C)n(-c3ccccc3)c2=O)cc1 | > 100 | > 100 | > 100 | > 100 | > 100 | > 100 | > 100 | > 100 | > 100 | > 100 | > 100 | > 100
